Experimental findings from patent US10940179B2, “Therapeutic compositions for the treatment of dry eye disease” (SCHEPENS EYE RESEARCH INSTITUTE, priority 2010, dated 2021) are described below.

One assay has as its system VEGF-C, -D, R3. The assay can be described thus: Real-time PCR of pro-lymphangiogenic growth factors and receptors in DE corneas. The format is in vivo, mouse. As to conditions: DED mice, VEGF-C blockade. From the text:
(§1) Eight to ten week-old female C57BLI6 mice (Charles River Laboratory, Wilmington, Mass.) were used in accordance with the standards in the ARVO Statement for the Use of Animals in Ophthalmic and Vision Research. The research protocol was approved by the Schepens Eye Research Institute Animal Care and Use Committee. Dry eye was induced in murine eyes using a Controlled Environment Chamber (CEC) which exposes the mice to high-flow desiccated air. To achieve maximum ocular surface dryness, the conditions in CEC were supplemented with topical application of 1% atropine sulfate (Falcon Pharma, Fort Worth, Tex.) twice for the first 48 hours and subcutaneous injections of 0.1 ml of 5 mg/ml of scopolamine hydrobromide (Sigma-Aldrich, St. Louis, Mo.) three times a day, for the entire duration of the experiment.
Five mice (10 eyes) were included in each group. Two corneas were pooled together to equal as one sample and stored at −80° C. in Trizol (Invitrogen, Carlsbad, Calif.; catalog No. 15596026) until future use. Total RNA was isolated from these corneas using the RNeasy microkit (Qiagen, Valencia, Calif.; catalog No. 74004). Equal amounts of RNA were used to synthesize cDNA using SuperScript™ III Reverse Trancriptase (Invitrogen, Carlsbad, Calif.; catalog No. 18080) according to the manufacturer's recommendations. Real-Time PCR was performed using FAM-MGB dye labeled predesigned primers (Applied Biosystem, Foster City, Calif.) for GAPDH (assay ID.Mm999999 15_gl), VEGF-A (Mm00437304_ml), VEGF-C (Mrn00437313_ml), VEGF-D (Mm00438965_ml), VEGFR-2 (Mm00440099_ml), VEGFR-3 (Mm00433337_ml). 2.5 μl of cDNA was loaded in each well and assays were performed in duplicate. The GAPDH gene was used as the endogenous reference for each reaction. […]
(§2) Real time PCR was performed to quantify expression of different VEGF growth factors (VEGF-A, VEGF-C, VEGF-D) and their receptors (VEGFR-2, VEGFR-3) in the cornea at days 6, 10 and 14 (FIG. 8) and to determine the levels of proinflammatory cytokines.
A general note: In qPCR the cycle at which signal appears reflects the starting amount.

The subject of a further assay is CD11b+ cells. The assay can be described thus: Enumeration of CD11b+ cells in DED corneas (immunohistochemistry). The format is in vivo, mouse. The text has this:
(§3) Eight to ten week-old female C57BLI6 mice (Charles River Laboratory, Wilmington, Mass.) were used in accordance with the standards in the ARVO Statement for the Use of Animals in Ophthalmic and Vision Research. The research protocol was approved by the Schepens Eye Research Institute Animal Care and Use Committee. Dry eye was induced in murine eyes using a Controlled Environment Chamber (CEC) which exposes the mice to high-flow desiccated air. […]
(§4) Freshly excised corneas were washed in PBS, fixed in acetone for 15 minutes and then double stained with CD31 and LYVE-1 as described previously. To analyze infiltration of CD11b^+/LYVE-1 cells, corneas from three mice from each group were taken and cells were counted in 5-6 areas in the periphery ([…] area from the limbus) of each cornea in a masked fashion, using epifluorescence microscope (model E800; Nikon, Melville, N.Y.) at 40× magnification. The mean number of cells was obtained by averaging the total number of cells in all the areas studied and the result was expressed as the number of positive cells per mm^2.
(§5) Anti-VEGF-C antibodies (VGX-100; Vegenics Limited, Australia) were administered intraperitonealy daily from day 1 to day 10 to DED mice. Mice were assessed clinically using corneal fluorescent staining. […]

For assay [1], the system named is IL-17 (Th17 cells) and IFN-γ (Th1 cells). The assay can be described thus: Real-time PCR of inflammatory cytokines in draining lymph nodes of DED mice. The format is in vivo, mouse. The conditions noted are these: treated vs untreated DED mice.
From the text: as §1
Five mice (10 eyes) were included in each group. […]
as §5, §2

The subject of another assay is corneal lymphatics. The experiment in a line: Corneal lymphangiogenesis in DED mice (CD31/LYVE-1 staining, morphometry). The conditions noted are these: in vivo blockade of VEGF-C. The arrangement: species or system mouse.
From the text: as §3, §4
Morphology of lymphatics was analyzed using an automated image analysis program written with Matlab (The Mathworks, Inc., Natick, Mass.). […] The resultant isolated lymphatic vessels were analyzed morphologically using two metrices, Lymphatic Area (LA) and Lymphatic Caliber (LC). […]

In assay [2] the test system is IL-1α, IL-1β, IL-6, IL-17. The experiment in a line: Real-time PCR of proinflammatory cytokines in conjunctiva of DED mice. The format is in vivo, mouse.
From the text: as §1
Five mice (10 eyes) were included in each group. Two corneas were pooled together to equal as one sample and stored at −80° C. in Trizol (Invitrogen, Carlsbad, Calif.; catalog No. 15596026) until future use. Total RNA was isolated from these corneas using the RNeasy microkit (Qiagen, Valencia, Calif.; catalog No. 74004). Equal amounts of RNA were used to synthesize cDNA using SuperScript™ III Reverse Trancriptase (Invitrogen, Carlsbad, Calif.; catalog No. 18080) according to the manufacturer's recommendations. Real-Time PCR was performed using FAM-MGB dye labeled predesigned primers (Applied Biosystem, Foster City, Calif.) for GAPDH (assay ID.Mm999999 15_gl), VEGF-A (Mm00437304_ml), VEGF-C (Mrn00437313_ml), VEGF-D (Mm00438965_ml), VEGFR-2 (Mm00440099_ml), VEGFR-3 (Mm00433337_ml). 2.5 μl of cDNA was loaded in each well and assays were performed in duplicate. The GAPDH gene was used as the endogenous reference for each reaction. The results were normalized by the cycle threshold (CT) of GAPDH and the relative mRNA level in the normal mice was used as the normalized control.
(§6) Anti-VEGF-C antibodies (VGX-100; Vegenics Limited, Australia) were administered intraperitonealy daily from day 1 to day 10 to DED mice. Mice were assessed clinically using corneal fluorescent staining. Tissues from cornea, conjunctiva and draining lymph nodes were examined for cellular and molecular pathological changes.
as §2

The next assay has as its system DED mice. The experiment in a line: Corneal fluorescein staining / clinical signs in experimental dry eye murine model. As to conditions: for Clinical signs of DED / disease severity: anti-VEGF-C-treated vs untreated (saline) group, daily i.p. The format is in vivo, mouse.
From the text: as §1, §6
Corneal lymphatics play an important role in mediating the corneal inflammation in dry eyes. Experiments: To validate this, inhibition of corneal neolymphangiogenesis was performed in a well characterized mouse model of DED described above. To see if inhibition of corneal neolymphangiogenesis could decrease ocular surface inflammation, anti-VEGF-C antibodies were administered i.p. daily from day −1 to day 10 to DED mice and assessed clinically using corneal fluorescein staining.
Methods (as described previously): Induction of Dry Eye Disease. Experimental Dry Eye Murine Model. Assessment of Corneal Surface: Corneal Fluorescein Staining. Immunohistochemistry: Monocyte/macrophage marker—CD11b; Pan-endothelial marker—CD31; Lymphatic endothelial marker—LYVE-1; Blood vessels: CD31^hi/LYVE-1; Lymph vessels: CD31^lo/LYVE-l^hi. Morphometry of Lymphangiogenesis: Automated image analysis program written using Mat lab. Lymphatic Area (LA)—total surface area of the lymphatic vessels when projected into the plane of the image. Lymphatic Caliber (LC)—measure of the diameters of the lymphatic vessels.
Anti-VEGF-C antibody and treatment regimen. Experimental design: Three groups: Normal, DE group treated with IP normal Saline (Untreated) and DE group treated with anti-VEGF-C antibody (VGX-100; a gift from Vegenics, Australia). Daily IP application of anti-VEGF-C antibody/Normal saline from day −1 to day 13. Dose: […] (20 mg/kg) in […] of Normal Saline.

The mark [3] stands for this setting: DED mice, VEGF-C blockade (summary).

Consider “VGX-100: human anti-VEGF-C monoclonal antibody produced by hybridoma ATCC PTA-4095; heavy/light chains SEQ ID NO: 34/35; from Vegenics”, for which, in the assay on VEGF-C, -D, R3, the “Expression of VEGF-C in DE corneas” value was “decrease”, the “Expression of VEGF-D in DE corneas” value was “decrease” and the “Expression of VEGFR-3 (R3) in DE corneas” value is “decrease”. For the same substance, the “Decrease of infiltration of CD11b+ cells in DED corneas” value in the assay on CD11b+ cells (DED corneas, day 14) was 30%. Moreover, in the assay on CD11b+ cells (setting [3]), the “Corneal infiltration of CD11b+ cells” value was “decrease”. Further, the “Induction of T-cell mediated autoimmune response in draining lymph nodes (IL-17, IFN-γ by real-time PCR)” value in assay [1] was “significantly decreased induction”. Moreover, in the assay on corneal lymphatics, the “Corneal lymphangiogenesis / lymphatic growth” value is “suppresses corneallymphangiogenesis”. Further, the “Corneal lymphangiogenesis / lymphatic growth” value in the assay on corneal lymphatics (listed as anti-VEGF-C) is on record as “suppression of lymphatic growth”. Further, in assay [2] (setting [3]), the “mRNA expression levels of proinflammatory cytokines in the conjunctiva” value was “decrease”. Besides, in assay [2] (treated vs untreated DED mice), the “IL-1α expression in conjunctiva (real-time PCR)” value is listed as “significantly decreased expression”, the “IL-1β expression in conjunctiva (real-time PCR)” value is recorded as “significantly decreased expression”, the “IL-6 expression in conjunctiva (real-time PCR)” value is “significantly decreased expression” and the “IL-17 expression in conjunctiva (real-time PCR)” value is “significantly decreased expression”. For the same substance, in the assay on DED mice (VEGF-C blockade), the Corneal epitheliopathy result is “decrease”. The “Clinical signs of DED / disease severity” value in the assay on DED mice was “ameliorates clinical signs of DED”. In addition, the “Clinical signs of DED / disease severity” value in the assay on DED mice (listed as anti-VEGF-C) was “significant decrease in disease severity”. For the same substance, in the assay with DED mice (listed as anti-VEGF-C Ab), the “Clinical signs of DED / disease severity” value is recorded as “ameliorates clinical signs of DED”. For the same substance, the “Corneal fluorescein staining (CFS) score” value with DED mice (days 5, 9 and 13, vs untreated group, daily IP 400 µg (20 mg/kg) in 100 µl saline) is given as “significantly decreased”.
